From patent publication US5420276A, “Analogs of oxetanyl purines and pyrimidines” (Abbott Laboratories, priority 1993, dated 1995)
≈ marks a conversion by molar mass, not a printed value. Like-named read-outs stand apart in the source and are kept apart here.

How the values were obtained:
[1] = Drug cytotoxicity in Vero cells (microscopic, CPE-inhibition assay); format: cell-based; conditions: african green monkey, minimum drug concentration causing any cytotoxicity, read-out: MTC
Protocol: (§1) Mammalian cells were pregrown as monolayers in wells of COSTAR 96-well tissue culture plates using suitable cell culture media. Stock viruses were pretitered according to the method of Reed and Muench (Amer. J. Hyg. 27:493-497, 1938) and diluted in cell culture medium to yield 32 CCID50 (cell culture infectious dose, 50%) units per 0.1 ml. Antiviral assays were designed to test seven concentrations of each compound, from cytotoxic to noncytotoxic levels, in triplicate against each of the challenge viruses in microtiter plate wells containing suitable cell monolayers. To each of the replicate cell cultures were added 0.1 ml of the test drug solution and 0.1 ml of virus suspension. Cell controls containing medium alone, virus controls containing medium and virus, and drug cytotoxicity controls containing medium and each drug concentration were run simultaneously with the test samples assayed in each experiment. […] The cell monolayers were examined microscopically for virus-induced CPE and for drug cytotoxicity.
(§2) Antiviral activity was determined by calculating the degree of inhibition of virus-induced CPE in drug-treated, virus-infected cell cultures by means of a virus rating (VR). The VR is a standard weighted measurement of antiviral activity taking into account both the degree of CPE inhibition and drug cytotoxicity, and is determined by a modification of the method of Ehrlich et al. (Ann. N.Y. Acad. Sci. 130: 5-16, 1965) as described below. CPE was graded for each individual culture in each microtiter plate well according to the following scale:
(§3) The minimum inhibitory drug concentration which reduced the cytopathogenic effect (CPE) by 50% (MIC50) was calculated by using a regression analysis program for semilog curve fitting. A therapeutic index (TI) for each active compound for each susceptible virus was determined by dividing the minimum cytotoxic concentration of the test compound by the MIC50.

[2] = tested on: Herpes simplex type 2 (HSV-2) strain MS; assay: CPE-inhibition assay, herpes simplex type 2 strain MS in Vero cells; format: cell-based, herpes simplex virus type 2; conditions: for VR (Virus Rating): HSV-2 (MS)
Protocol: (§4) The challenge viruses were propagated and assayed in cells that were pregrown as monolayer cultures in plastic tissue culture flasks and 96-well plates, using cell culture media appropriate for the host cell cultures. The following viruses and host cell cultures were employed:
(§5) green monkey kidney (Vero)
(§6) On the day of use, a weighed sample of each compound to be evaluated was dissolved and diluted in serial 10^0.5 dilutions in the culture medium appropriate for each virus-host cell system.
as §1, §2
(§7) 4=100% of the cells affected by virus;
(§8) 3=75% of the cells affected by virus;
(§9) 2=50% of the cells affected by virus;
(§10) 1=25% of the cells affected by virus;
(§11) 0=No CPE; normal cell monolayer.
(§12) The VR was calculated as 0.1 of the sum of the numerical differences between the recorded CPE grade of each test well and that of the corresponding virus control in the culture plate. Numerical differences between the scores of test wells containing a drug concentration which was partially cytotoxic (p) and their corresponding virus controls were halved.
as §3

[3] = tested on: Varicella-Zoster Virus (VZV) clinical isolate DM625; assay: VZV plaque reduction assay; format: cell-based; conditions: Human alphaherpesvirus 3, 144 h, VZV in HFF; for EC50: minimum concentration required to inhibit plaque formation by 50%, read-out: MIC50
Protocol: The compounds of the invention were evaluated for selective activity against varicella zoster virus (VCV) utilizing a plaque reduction assay procedure. The challenge virus was a clinical isolate designated DM625, obtained from Dr. Richard Whitley of the University of Alabama Hospitals, Birmingham, Ala. The virus had been passaged and titrated in cultures of human foreskin fibroblasts (HFF).
(§13) For the plaque reduction assay, sixth to twelfth passage human foreskin fibroblasts were seeded in wells of 12-well tissue culture plates and incubated at 37° C. in a humidified atmosphere containing 2% CO2 in air. Subconfluent HFF were rinsed with MEM and exposed to 0.5 ml/well of a suspension of VZV diluted in MEM+2% FBS for 2 hours at 37° C. Following the virus adsorption period, the inocula were removed and the infected cell layers were rinsed with MEM. Triplicate VZV-infected cell culture wells were treated with 1.0 ml of each concentration of test compound (in MEM+2% FBS). Six untreated virus-infected cell cultures and triplicate untreated uninfected cell cultures were fed with 1.0 ml of MEM+2% FBS to serve as controls. Wells containing uninfected HFF were treated with each concentration of test compound to monitor the test compound cytotoxicity. The 12-well plates were incubated at 37° C. in the CO2 incubator. At 48 hours post-virus infection (p.i.), fluids in all plate wells were replaced with fresh test compound and/or culture medium.
Six days p.i., the VZV plaques were counted (unstained, low magnification).The effect of each concentration of test compound on plaque formation was determined by comparing the mean number of plaques in the replicate test compound-treated cultures with the mean plaque counts of the untreated virus control cultures.
The MIC50 value is the minimum concentration of test Compound required to inhibit plaque formation by 50%.

[4] = tested on: Herpes simplex type 1 (HSV-1) strain E-377; assay: CPE-inhibition assay, herpes simplex type 1 strain E-377 in Vero cells; format: cell-based, herpes simplex virus type 1; conditions: for VR (Virus Rating): HSV-1 (E-377); for IC50: Human alphaherpesvirus 1, HSV-1 (E-377), minimum drug concentration that inhibited the CPE by 50%, read-out: ID50 (the source's name)
Protocol: as §4, §5, §6, §1, §2, §7, §8, §9, §10, §11, §12, §3

[5] = MTT test compound cytotoxicity in human foreskin fibroblasts; format: cell-based; conditions: hff cells, read-out: MTT assay (Percent of control)
Protocol: as §13
The test compound cytotoxicity control cultures were examined microscopically for gross morphologic changes, then treated with MTT and 30% SDS. The blue color of the MTT formazan was measured spectrophotometrically at 570 nm. Test compound cytotoxicity was determined by comparing the absorbance (O.D.) of each test compound control with the mean O.D. of the cell control cultures and expressed as percent of control.

Compound	MCC ([1]; HSV-1 (E-377)) [µg/mL]	MCC ([1]; HSV-2 (MS)) [µg/mL]	VR (Virus Rating) [2]	inhibition at 1 µM [3] [%]	inhibition at 3.2 µM [3] [%]	EC50 [3] [µg/mL]	VR (Virus Rating) [4]	IC50 [4] [µg/mL]	viability at 3.2 µM [5] [%]	inhibition at 0.032 µM [3] [%]	inhibition at 0.1 µM [3] [%]	inhibition at 0.32 µM [3] [%]	viability at 0.1 µM [5] [%]	viability at 0.32 µM [5] [%]	viability at 1 µM [5] [%]	also measured
O=c1ccn([C@@H]2O[C@H](CO)[C@H]2CO)c(=O)[nH]1 [Example 23, 1-([2'R,3'R,4'S]-3',4'-Bis(hydroxymethyl)-2'-oxetanyl)uracil]	320	320	0.5	22	22	19.4 (≈ 85 µM)	0.6	307 (≈ 1340 µM)	82	–	–	–	–	–	–	inhibition at 10 µM ([3]; 10 μM): 34%; inhibition at 32 µM ([3]; 32 μM): 84%; inhibition at 100 µM ([3]; 100 μM): 100%; inhibition at 320 µM ([3]; 320 μM): 100%; viability at 10 µM ([5]; 10 μM): 84%; viability at 32 µM ([5]; 32 μM): 87%; viability at 100 µM ([5]; 100 μM): 88%; viability at 320 µM ([5]; 320 μM): 82%
Nc1ccn([C@@H]2O[C@H](CO)[C@H]2CO)c(=O)n1 [Example 22, 1-([2'R,3'R,4'S]-3',4'-Bis(hydroxymethyl)-2'-oxetanyl)cytosine]	10	10	1.95	100	100	0.07 (≈ 0.308 µM)	2.65	0.8 (≈ 3.52 µM)	76	29	86	100	88	81	77	IC50 ([2]; Human alphaherpesvirus 2, HSV-2 (MS), minimum drug concentration that inhibited the CPE by 50%, read-out: ID50 (the source's name)): 1 µg/mL (≈ 4.4 µM)
O=c1[nH]c(=O)n([C@@H]2O[C@H](CO)[C@H]2CO)cc1C=CBr [Example 44, 1-([2'R, 3'R, 4'S]-3',4'-Bis(hydroxymethyl)-2'-oxetanyl)-5-(2-bromo-1-vinyl)uracil]	–	–	–	99	100	0.0032 (≈ 0.00961 µM)	–	–	100	97	98	99	92	92	100	inhibition at 0.0001 µM ([3]; 0.0001 μM): 3%; inhibition at 0.00032 µM ([3]; 0.00032 μM): 6%; inhibition at 0.001 µM ([3]; 0.001 μM): 4%; inhibition at 0.0032 µM ([3]; 0.0032 μM): 16%; inhibition at 0.01 µM ([3]; 0.01 μM): 54%; viability at 0.0001 µM ([5]; 0.0001 μM): 99%; viability at 0.00032 µM ([5]; 0.00032 μM): 98%; viability at 0.001 µM ([5]; 0.001 μM): 93%; viability at 0.0032 µM ([5]; 0.0032 μM): 100%; viability at 0.01 µM ([5]; 0.01 μM): 97%; viability at 0.032 µM ([5]; 0.032 μM): 94%
